{"source": "patent US20080070939A1", "about": "“LOCAL […] COMPOSITIONS CONTAINING DEXTROROTATORY MORPHINAN DERIVATIVES OR PHARMACEUTICALLY ACCEPTABLE SALTS THEREOF” (CHI MEI FOUNDATION HOSPITAL, priority 2006, published 2008)", "key": {"[1]": {"system": "Male Sprague-Dawley rats", "assay": "Spinal anesthetic effect (spinal blockade) after intrathecal injection in rats", "type": "in vivo", "parameters": "AUC of time-% PE curve, spinal blockade of motor function / AUC of time-% PE curve, spinal blockade of proprioception / AUC of time-% PE curve, spinal blockade of nociceptive reaction: unit not given beside the values", "procedure": "(§1) Male Sprague-Dawley rats (weighing about 300 to 350 g); for each dose of each drug, n=6.\nIn brief, for preparation, the hairs on the back of each rat were shaved, and the shaved back was sterilized with iodine.\nAfter three minutes, 50 μL of each of the tested drugs was injected via a 27-gauge needle attached to a 100-μL syringe (Hamilton, Reno, Nev.) into the intrathecal space between the fourth and fifth lumbar vertebrae. The development of spinal blockade was observed from the paralysis of the hind limbs of the rats.\nThe magnitude of nerve block (including blocking of motor function, proprioception, and nociceptive reaction) was expressed as the percentage of possible effect (hereinafter referred to as % PE), and the maximal value of % PE was expressed as the percentage of maximal possible effect (hereinafter referred to as % MPE).\nMotor function was evaluated by measuring the extensor postural thrust of the right hind limbs of the rats using a digital platform balance (Mettler Toledo, Switzerland, model PB1502-S). To test the extensor postural thrust, the rat was held upright with the hind limb extended, so that the body weight of the rat was supported by the distal metatarsus and toes. The extensor postural thrust could be measured as the force of the right hind limb of the rat thrusting the platform balance.\nA reduction in the force, resulting in extensor muscle tone, was considered as a motor deficit. A force less than 20 g (i.e., a weight of the “flaccid limb”) was considered absence of an extensor postural thrust or 100% motor block or 100% MPE.\nProprioception was evaluated based on resting posture and postural reactions (including tactile placing and hopping). First, the front half of the rat body and one of the hind limbs were lifted off the ground at the same time so that the rat was standing on one hind limb. Then, the rat was moved laterally, which normally evoked a prompt hopping response of the weight-bearing hind limb of the rat in the direction of movement so as to avoid falling. A predominantly proprioceptive block caused a delayed hopping followed by greater lateral hops. […] Functional deficits were classified into four grades: 3 (normal or 0% MPE), 2 (slightly impaired), 1 (severely impaired), and 0 (completely impaired or 100% MPE).\nNociceptive reaction was evaluated by the withdrawal reflex or vocalization elicited by the pinch of a skin fold over the back at 1 cm near the proximal part of the tail, the lateral metatarsus of the bilateral hind limbs, and the dorsal part of the mid-tail. At each testing time, only one pinch was given to each of the abovementioned four testing sites, and the time interval between stimulations at different sites was around 2 seconds. Nociceptive reactions were classified into five grades: 4 (normal or 0% MPE), 3 (25% MPE), 2 (50% MPE), 1 (75% MPE), and 0 (absent or 100% MPE).\nThe potency of each drug on spinal blockades was compared using ED50.\nDuration was defined as the interval from injection of the tested drugs to complete recovery. The ED25, ED50 and ED75 obtained according to the SAS NLIN analysis in the preceding section “C. Potency evaluation” were used in this experiment.\nRegarding the method of evaluating the effect of co-administration, dextromethorphan hydrobromide monohydrate was used as an example.\nAfter the tests, the time of measurement of each drug and its corresponding % PE were plotted to obtain the time-% PE curves of each drug. The area under the curve (AUC) of time-% PE was calculated using the trapezoidal rule, and was used to evaluate the effect of the co-administration of the drugs.\nStatistical software, SPSS for Windows® (version 10.0.7) was used. Data were represented as mean±SEM."}, "[2]": {"system": "sciatic nerve", "assay": "Sciatic nerve blockade after injection at the sciatic nerve notch in rats", "type": "in vivo", "parameters": "AUC of time-% PE curve, sciatic nerve blockade of motor function / AUC of time-% PE curve, sciatic nerve blockade of proprioception / AUC of time-% PE curve, sciatic nerve blockade of nociceptive reaction: unit not given beside the values", "details": "rats", "procedure": "as §1\nIn brief, the rats were slightly anesthetized by inhalation of a low concentration of sevoflurane. Then, 200 μL of tested drugs were injected at the sciatic nerve notch at the left hind limb of the rat using a 27-gauge needle connected to a tuberculin syringe (Becton Dickinson, USA, model BND309623-BX). Thereafter, development of sciatic nerve blockade was observed from the paralysis of the left hind limb of the rat. The right hind limb served as a control during the subsequent functional assay\nFor proprioception, the front half of the rat body and the right hind limb were off the ground at the same time so that the rat was standing on the left hind limb during the measurement.\nThe differences resided in that: The sciatic nerve notch injections of ED25, ED50 and ED75 were conducted based on the method described in the preceding section “A. Drug injection” of this example. Evaluations of motor function, proprioception and nociceptive reaction were conducted based on the method described in section “B. Neurobehavioral evaluations” of this example.\nThe differences resided in that: Before the statistical analysis, Shapiro-Wilk test was used to evaluate whether the data were, theoretically, normally distributed."}, "[3]": {"system": "Male Sprague-Dawley rats", "assay": "Infiltrative cutaneous anesthesia (inhibition of cutaneous trunci muscle reflex, CTMR) after subcutaneous injection in rats", "type": "in vivo", "procedure": "Male Sprague-Dawley rats (weighing about 200 to 250 g); for each dose of each drug, n=8.\nIn brief, hairs on the dorsal surface (about 10×10 cm^2) of the thoracolumbar region of the rat were shaved, and the shaved surface was sterilized with iodine for preparation. To reduce the number of animals used, the back of the rat was further divided into left and right parts. One drug was injected first at the right part. After a washout period of one week, another drug was injected at the left part.\n0.6 mL of drug was injected subcutaneously under the dorsal surface of the thoracolumbar region of the rat using a 30-gauge needle attached to a syringe (Becton Drive, Franklin Lakes, USA). The subcutaneous injection would result in a circular elevation (i.e., a wheal) of the skin, about 2 cm in diameter. The elevation was marked with ink within 1 minute after injection.\nCTMR refers to the reflex movement of the skin of the back caused by twitching of the lateral thoracispinal muscle in response to local dorsal cutaneous stimulation. Essentially, a von Frey filament (No.15; Somedic Sales AB, Sweden) to which a cut end of an 18-gauge needle was affixed was used to produce a standard nociceptive stimulus (strength: 19 g). Six pinpricks (at a frequency of 0.5-1 Hz) were applied to a single marked wheal during each test. […] For example, absence of any response to all of the 6 pinpricks was defined as a complete nociceptive block (i.e., 100% MPE).\nThe difference resided in that subcutaneous injections of ED25, ED50 and ED75 of the drugs were performed based on the method described in the section “A. Drug injection” of this example, and evaluation of the infiltrative cutaneous anesthetic effect was performed based on the method described in the section “B. Neurobehavioral evaluation” of this example."}, "[4]": {"system": "rats", "assay": "Systemic safety indices: mortality 24 hours after intraperitoneal injection in rats", "details": "intraperitoneal injection, rats, mortality after 24 hours", "procedure": "Essentially, each drug was injected intraperitoneally into the rats (n=8). The number of dead rats was observed after 24 hours, and the rate of mortality (%) was calculated. Thereafter, the doses of each drug and the relative mortality were plotted to obtain dose-mortality curves of the drugs. […] The safety index (LD50/ED50) of each drug was calculated using the LD50 thus obtained and the ED50 obtained in the section “C. Potency evaluation” of this example."}, "[5]": {"details": "intrathecal, rats, 2 ED50 when administered independently, ED50 of each drug when co-administered, mean ± SEM"}, "[6]": {"details": "spinal blockade, mean of motor function, proprioception and nociceptive reaction, intrathecal, rats"}, "[7]": {"details": "2ED50 when administered independently, ED50 of each drug when co-administered, mean ± SEM"}, "[8]": {"details": "infiltrative cutaneous anesthesia, rats, 2ED50 when administered independently, ED50 for co-administration, mean ± SEM"}, "[9]": {"details": "infiltrative cutaneous anesthesia, subcutaneous injection, rats"}, "[10]": {"details": "subcutaneous dose of ED75, rats, mean±SEM"}}, "data": [{"substance": "Dextrorphan tartrate", "values": [{"measurement": "% MPE of spinal blockades of motor function, proprioception and nociceptive reaction (range over the three functions)", "setting": "[1]; intrathecal dose of ED75, rats", "result": "62-77 % MPE"}, {"measurement": "duration of spinal blockades of motor function, proprioception and nociceptive reaction (range over the three functions)", "setting": "[1]; intrathecal dose of ED75, rats", "result": "30 to 65", "unit": "min"}, {"measurement": "effect of co-administration with bupivacaine hydrochloride on spinal blockade", "setting": "[1]; intrathecal, rats, ED50 of each drug", "result": "synergistic effect"}, {"measurement": "AUC of time-% PE curve, spinal blockade of motor function", "setting": "[1]; [5]", "result": "1447 ± 163"}, {"measurement": "AUC of time-% PE curve, spinal blockade of nociceptive reaction", "setting": "[1]; [5]", "result": "4332 ± 382"}, {"measurement": "Motor function ED50 (95% CI)", "setting": "[1]; spinal blockade of motor function, intrathecal injection, rats", "result": "0.40 (0.39–0.42) mg"}, {"measurement": "Nociceptive reaction ED50 (95% CI)", "setting": "[1]; spinal blockade of nociceptive reaction, intrathecal injection, rats", "result": "0.28 (0.26–0.30) mg"}, {"measurement": "Proprioception ED50 (95% CI)", "setting": "[1]; spinal blockade of proprioception, intrathecal injection, rats", "result": "0.32 (0.30–0.35) mg"}, {"measurement": "Mean value ED25", "setting": "[1]; [6]", "result": 0.25, "unit": "mg"}, {"measurement": "Mean value ED50", "setting": "[1]; [6]", "result": 0.33, "unit": "mg"}, {"measurement": "Mean value ED75", "setting": "[1]; [6]", "result": 0.45, "unit": "mg"}, {"measurement": "effect of co-administration with lidocaine hydrochloride on sciatic nerve blockades", "setting": "[2]; ED50 of each drug", "result": "additive effect"}, {"measurement": "AUC of time-% PE curve, sciatic nerve blockade of motor function", "setting": "[2]; [7]", "result": "7077 ± 429"}, {"measurement": "AUC of time-% PE curve, sciatic nerve blockade of nociceptive reaction", "setting": "[2]; [7]", "result": "8786 ± 915"}, {"measurement": "AUC of time-% PE curve, sciatic nerve blockade of proprioception", "setting": "[2]; [7]", "result": "7357 ± 558"}, {"measurement": "duration of sciatic nerve blockade compared with lidocaine hydrochloride", "setting": "[2]; same effective doses (ED25, ED50 or ED75)", "result": "longer reaction duration"}, {"measurement": "Motor function ED50 (95% CI)", "setting": "[2]; sciatic nerve blockade of motor function", "result": "14.66 (13.78–15.58) mg/kg"}, {"measurement": "Nociceptive reaction ED50 (95% CI)", "setting": "[2]; sciatic nerve blockade of nociceptive reaction", "result": "13.38 (12.37–14.47) mg/kg"}, {"measurement": "Proprioception ED50 (95% CI)", "setting": "[2]; sciatic nerve blockade of proprioception", "result": "14.52 (13.40–15.73) mg/kg"}, {"measurement": "Mean ED50", "setting": "[2]; sciatic nerve blockade, mean of motor function, proprioception and nociceptive reaction", "result": 14.19, "unit": "mg/kg"}, {"measurement": "% MPE", "setting": "[3]; [8]", "result": "73 ± 11", "unit": "% MPE"}, {"measurement": "AUC (% min.)", "setting": "[3]; [8]", "result": "3200 ± 690", "unit": "% min."}, {"measurement": "Duration", "setting": "[3]; [8]", "result": "63 ± 7", "unit": "min"}, {"measurement": "ED25", "setting": "[3]; [9]", "result": 4.03, "unit": "mg/kg"}, {"measurement": "ED50 (95% CI)", "setting": "[3]; [9]", "result": "5.66 (5.17–6.21) mg/kg"}, {"measurement": "ED75", "setting": "[3]; [9]", "result": 7.97, "unit": "mg/kg"}, {"measurement": "duration of cutaneous anesthesia compared with lidocaine hydrochloride", "setting": "[3]; same effective doses (ED25, ED50 or ED75), rats", "result": "longer duration"}, {"measurement": "% MPE of cutaneous nociceptive block", "setting": "[3]; [10]", "result": "73±7", "unit": "% MPE"}, {"measurement": "duration of cutaneous nociceptive block", "setting": "[3]; [10]", "result": "~48 ± 3", "unit": "min"}, {"measurement": "effect of co-administration with lidocaine hydrochloride on cutaneous nociceptive blockade", "setting": "[3]; subcutaneous, rats, ED50 of each drug", "result": "additive effect"}, {"measurement": "LD50 (95% CI)", "setting": "[4]", "result": "307 (257–369) mg/kg"}]}]}
